# Test results reported in patent US10138255B2, “Piperazine derivatives as HIV protease inhibitors” (Merck Sharp & Dohme Corp., priority 2014, dated 2018).
# Test system: HIV-1 (H9IIIB strain)
# Assay: Cell-Based HIV Infection Assay Using a Reporter (MT4-GFP cells)
# Conditions: Human immunodeficiency virus 1, inflection point (IP) of viral growth inhibition; MT4-GFP cells infected with HIV-1 H9IIIB; 50% normal human serum; mean of at least two independent experiments; read-out: Cell Based IP (50% NHS)
# Procedure, shortened: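 MT4-GFP cells (HIV LTR-driven GFP) bulk-infected with HIV-1 H9IIIB at low MOI for 24 h, washed, then exposed to compounds in RPMI plus 50% normal human serum, 0.4% DMSO. Infected cells counted at 24 and 48 h; R0 = 48 h/24 h ratio, inhibition normalised to DMSO and triple-drug control; IP from 4-parameter fit.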
row,Structure (SMILES),EC50 [nM]
1,N[C@H](C(=O)N[C@H]1CCCC[C@@H]1CC[C@H]1CN[C@@H]2CCCS(=O)(=O)N1C2)[C@H](c1cncc(C(F)(F)F)c1)c1ccc(Cl)c(F)c1 [Example 150],22
2,"COC(=O)N[C@H](C(=O)Nc1cccc(F)c1CC[C@H]1CN[C@@H]2CCCS(=O)(=O)N1C2)[C@@H](c1ccc(F)cc1)c1cnc(OC(C)C)nc1 [Example 206, methyl [(1S)-2-[(2-{2-[(6R,9S)-2,2-dioxido-2-thia-1,7-diazabicyclo[4.3.1]dec-9-yl]ethyl}-3-fluorophenyl)amino]-1-{(S)-(4-fluorophenyl)[2-(1-methylethoxy)pyrimidin-5-yl]methyl}-2-oxoethyl]carbamate]",16
3,"N[C@H](C(=O)N[C@H]1CCC[C@@H]1CC[C@H]1CN[C@@H]2CCCS(=O)(=O)N1C2)[C@@H](c1ccc(F)cc1)c1cc(F)cc(F)c1 [Example 57, (βS)-β-(3,5-difluorophenyl)-N-[(1S,2R)-2-{2-[(6R,9S)-2,2-dioxido-2-thia-1,7-diazabicyclo[4.3.1]dec-9-yl]ethyl}cyclopentyl]-4-fluoro-L-phenylalaninamide]",27
4,"N[C@H](C(=O)Nc1cccc(F)c1CC[C@H]1CNC2CCCS(=O)(=O)N1C2)[C@@H](c1ccc(Cl)cc1)C1CCS(=O)(=O)CC1 (stereo partly drawn) [Example 158, (βR)-4-chloro-β-(1,1-dioxidotetrahydro-2H-thiopyran-4-yl)-N-(2-{2-[(9S)-2,2-dioxido-2-thia-1,7-diazabicyclo[4.3.1]dec-9-yl]ethyl}-3-fluorophenyl)-L-phenylalaninamide]",110
5,"COC(=O)N[C@H](C(=O)Nc1cccc(F)c1CC[C@H]1CN[C@@H]2CCCS(=O)(=O)N1C2)[C@@H](c1ccc(F)cc1)[C@H]1CC[C@H](OC)CC1 [Example 117, methyl [(1S)-2-[(2-{2-[(6R,9S)-2,2-dioxido-2-thia-1,7-diazabicyclo[4.3.1]dec-9-yl]ethyl}-3-fluorophenyl)amino]-1-{(R)-(4-fluorophenyl)[(1r,4R)-4-methoxycyclohexyl]methyl}-2-oxoethyl]carbamate]",5
6,"COC(=O)N[C@H](C(=O)Nc1cccc(F)c1CC[C@H]1CN[C@@H]2CCCS(=O)(=O)N1C2)[C@@H](c1ccc(Cl)cc1)[C@H]1CC[C@H](OC)CC1 [Example 187, methyl {(1S,2R)-2-(4-chlorophenyl)-1-[(2-{2-[(6R,9S)-2,2-dioxido-2-thia-1,7-diazabicyclo[4.3.1]dec-9-yl]ethyl}-3-fluorophenyl)carbamoyl]-2-[(1r,4R)-4-methoxycyclohexyl]ethyl}carbamate]",3.2
7,"CC(C)Oc1ccc(C(c2ccc(Cl)cc2)[C@H](N)C(=O)Nc2cncc(F)c2CC[C@H]2CN[C@@H]3CCCS(=O)(=O)N2C3)cn1 (stereo in doubt) [Example 240, (2S,3R)-2-amino-3-(4-chlorophenyl)-N-(4-(2-((6R,9S)-2,2-dioxido-2-thia-1,7-diazabicyclo[4.3.1]decan-9-yl)ethyl)-5-fluoropyridin-3-yl)-3-(6-isopropoxypyridin-3-yl)propanamide]",8.4
8,"COC(=O)N[C@H](C(=O)Nc1cccc(F)c1CCC1CNC2CCCS(=O)(=O)N1C2)[C@H](CCC1CCOCC1)c1ccc(Cl)c(F)c1 (stereo partly drawn) [Example 9, Methyl [(1S,2R)-2-(4-chloro-3-fluorophenyl)-1-({2-[2-(2,2-dioxido-2-thia-1,7-diazabicyclo[4.3.1]dec-9-yl)ethyl]-3-fluorophenyl}carbamoyl)-4-(tetrahydro-2H-pyran-4-yl)butyl]carbamate]",7.1
9,"COC(=O)N[C@H](C(=O)N[C@H]1CCC[C@@H]1CC[C@H]1CN[C@@H]2CCCS(=O)(=O)N1C2)[C@H](c1cncc(F)c1)c1ccc(Cl)c(F)c1 [Example 77, methyl [(1S,2S)-2-(4-chloro-3-fluorophenyl)-1-{[(1S,2R)-2-{2-[(6R,9S)-2,2-dioxido-2-thia-1,7-diazabicyclo[4.3.1]dec-9-yl]ethyl}cyclopentyl]carbamoyl}-2-(5-fluoropyridin-3-yl)ethyl]carbamate]",57
10,"N[C@H](C(=O)Nc1cccc(F)c1CC[C@H]1CN[C@@H]2CCCS(=O)(=O)N1C2)[C@@H](c1ccc(F)cc1)C1CCCOC1 (stereo partly drawn) [Example 214, (βR)-N-(2-{2-[(6R,9S)-2,2-dioxido-2-thia-1,7-diazabicyclo[4.3.1]dec-9-yl]ethyl}-3-fluorophenyl)-4-fluoro-β-(tetrahydro-2H-pyran-3-yl)-L-phenylalaninamide]",18
11,"COC(=O)N[C@H](C(=O)N[C@H]1CCC[C@@H]1CC[C@H]1CN[C@@H]2CCCS(=O)(=O)N1C2)[C@@H](c1ccc(Cl)cc1)c1ccc(OC)nc1 [Example 78, methyl [(1S,2S)-2-(4-chlorophenyl)-1-{[(1S,2R)-2-{2-[(1S,2S)-2,2-dioxido-2-thia-1,7-diazabicyclo[4.3.1]dec-9-yl]ethyl}cyclopentyl]carbamoyl}-2-(6-methoxypyridin-3-yl)ethyl]carbamate]",38
12,"COC(=O)N[C@H](C(=O)Nc1cccc(F)c1CCC1CNC2CCCS(=O)(=O)N1C2)[C@@H](c1ccc(Cl)cc1)c1ccc(C(C)(F)F)nc1 (stereo partly drawn) [Example 116, methyl [(1S,2S)-2-(4-chlorophenyl)-2-[6-(1,1-difluoroethyl)pyridin-3-yl]-1-({2-[2-(2,2-dioxido-2-thia-1,7-diazabicyclo[4.3.1]dec-9-yl)ethyl]-3-fluorophenyl}carbamoyl)ethyl]carbamate]",18
13,"C[C@@H]1C[C@](c2ccc(Cl)cc2)([C@H](N)C(=O)N[C@H]2CCCC[C@@H]2CC[C@H]2CN[C@@H]3CCCS(=O)(=O)N2C3)C[C@H](C)O1 [Example 170, (2S)-2-amino-2-[(2R,4r,6S)-4-(4-chlorophenyl)-2,6-dimethyltetrahydro-2H-pyran-4-yl]-N-[(1S,2R)-2-{2-[(6R,9S)-2,2-dioxido-2-thia-1,7-diazabicyclo[4.3.1]dec-9-yl]ethyl}cyclohexyl]ethanamide]",230
14,"Cn1nc(C(F)(F)F)cc1[C@H](c1ccc(Cl)c(F)c1)[C@H](N)C(=O)Nc1cccc(F)c1CC[C@H]1CN[C@@H]2CCCS(=O)(=O)N1C2 [Example 267, (βR)-4-chloro-N-(2-{2-[(6R,9S)-2,2-dioxido-2-thia-1,7-diazabicyclo[4.3.1]dec-9-yl]ethyl}-3-fluorophenyl)-3-fluoro-β-[1-methyl-3-(trifluoromethyl)-1H-pyrazol-5-yl]-L-phenylalaninamide]",8
15,"CCOC[C@H]1CC[C@H]([C@H](c2ccc(Cl)cc2)[C@H](N)C(=O)Nc2cncc(F)c2CC[C@H]2CN[C@@H]3CCCS(=O)(=O)N2C3)CC1 [Example 258, (βR)-4-chloro-N-(4-{2-[(6R,9S)-2,2-dioxido-2-thia-1,7-diazabicyclo[4.3.1]dec-9-yl]ethyl}-5-fluoropyridin-3-yl)-β-[(1r,4R)-4-(ethoxymethyl)cyclohexyl]-L-phenylalaninamide]",3.4
16,"N[C@H](C(=O)N[C@H]1CCCC[C@@H]1CC[C@H]1CN[C@@H]2CCCS(=O)(=O)N1C2)[C@H](c1cncc(F)c1)c1ccc(Cl)c(F)c1 [Example 145, (βS)-4-chloro-N-[(1S,2R)-2-{2-[(6R,9S)-2,2-dioxido-2-thia-1,7-diazabicyclo[4.3.1]dec-9-yl]ethyl}cyclohexyl]-3-fluoro-β-(5-fluoropyridin-3-yl)-L-phenylalaninamide]",76
17,"CC1(C)C[C@@H]([C@H](c2ccc(Cl)cc2)[C@H](N)C(=O)Nc2cccc(F)c2CC[C@H]2CN[C@@H]3CCCS(=O)(=O)N2C3)CCO1 [Example 10, (2S,3R)-2-amino-3-(4-chlorophenyl)-3-((S)-2,2-dimethyltetrahydro-2H-pyran-4-yl)-N-(2-(2-((6R,9S)-2,2-dioxido-2-thia-1,7-diazabicyclo[4.3.1]decan-9-yl)ethyl)-3-fluorophenyl)propanamide]",6.7
18,"CC1(C)C[C@@H]([C@H](c2ccc(Cl)c(F)c2)[C@H](N)C(=O)Nc2cncc(F)c2CC[C@H]2CN[C@@H]3CCCS(=O)(=O)N2C3)CCO1 [Example 243, (2S,3R)-2-amino-3-(4-chloro-3-fluorophenyl)-3-((S)-2,2-dimethyltetrahydro-2H-pyran-4-yl)-N-(4-(2-((6R,9S)-2,2-dioxido-2-thia-1,7-diazabicyclo[4.3.1]decan-9-yl)ethyl)-5-fluoropyridin-3-yl)propanamide]",8
19,"COC(=O)N[C@H](C(=O)Nc1cccc(F)c1CC[C@H]1CN[C@@H]2CCCS(=O)(=O)N1C2)[C@]1(c2ccc(Cl)cc2)CC[C@H](OC)CC1 [Example 125, methyl {(1S)-1-[cis-1-(4-chlorophenyl)-4-methoxycyclohexyl]-2-[(2-{2-[(6R,9S)-2,2-dioxido-2-thia-1,7-diazabicyclo[4.3.1]dec-9-yl]ethyl}-3-fluorophenyl)amino]-2-oxoethyl}carbamate]",71
20,"C[C@@H]1C[C@H]([C@H](c2ccc(Cl)cc2)[C@H](N)C(=O)Nc2cccc(F)c2CC[C@H]2CN[C@@H]3CCCS(=O)(=O)N2C3)C[C@H](C)O1 [Example 121, (βR)-4-chloro-β-[(2R,4r,6S)-2,6-dimethyltetrahydro-2H-pyran-4-yl]-N-(2-{2-[(6R,9S)-2,2-dioxido-2-thia-1,7-diazabicyclo[4.3.1]dec-9-yl]ethyl}-3-fluorophenyl)-L-phenylalaninamide]",5.7

# Same assay, conditions: inflection point (IP) of viral growth inhibition; MT4-GFP cells infected with HIV-1 H9IIIB; 50% normal human serum; mean of at least two independent experiments; read-out: Cell Based IP (50% NHS)
row,Structure (SMILES),EC50 [nM]
1,"COC(=O)N[C@H](C(=O)Nc1cncc(F)c1CC[C@H]1CN[C@@H]2CCCS(=O)(=O)N1C2)C1(c2ccc(Cl)cc2)CCC(C(F)(F)F)CC1 (relative stereo) [Example 270, methyl {(1S)-1-[cis-1-(4-chlorophenyl)-4-(trifluoromethyl)cyclohexyl]-2-[(4-{2-[(6R,9S)-2,2-dioxido-2-thia-1,7-diazabicyclo[4.3.1]dec-9-yl]ethyl}-5-fluoropyridin-3-yl)amino]-2-oxoethyl}carbamate]",20
